Five molecules from patent publication US5962415A, “Compositions comprising a peptide inhibitor of nuclear protein translocation and an immunosuppressant and methods of use thereof” (Bristol-Myers Squibb Co., priority 1998, dated 1999) can be followed below.

Test [1] relates to HIV-M1 virus in H9 human lymphoma T-cells. Description: Infection of H9 T-cells with HIV-M1 virus (PCR of HIV-1 DNA). The settings on record: 2 μM, 4 hr preincubation, day 3, FIG. 7. It is filed as cell-based. As to the method:
(§1) HIV-1 M1 p24 levels were assayed using the procedures described in Smithgall et al (1995) AIDS Res. and Human Retrovirus 11:885. Proviral DNA content (gag) was measured using polymerase chain reaction analysis as described in Smithgall et al. (1995), supra.
(§2) H9 and Jurkat cells were incubated with the HIV-1MEM polypeptide (2,μM) or the control MEM peptide for 4 hr prior to addition of HIV-M1 virus. Cells were harvested on day 3 following injection and the level of HIV-1 DNA evaluated by polymerase chain reaction.

The test system of test [2] is 70Z/3 murine leukemia pre-B cells. Description: LPS-stimulated surface antigen expression (κ Ig light chain, IL-2 receptor, CD45) in 70Z/3 cells. In kind it is cell-based. The settings on record: for potency and efficacy of L- versus D-amino acid form, LPS-stimulated κ Ig expression: FIG. 3. How it is done: Expression of κ Ig, CD45, CD40, and the interleukin-2 receptor was assayed using standard enzyme-linked immunosorbent assays ("ELISAs") (see, Coligan et al. (eds.) (1991) Current Protocols in Immunology, Wiley & Sons, p. 2.10 or by FACS staining to measure cell-surface markers as described in Raff (1970) Immunology 19:637). Antibodies form cell surface markers were obtained from Pharmingen Co.
The effect of the SV40MEM polypeptide was compared with two additional polypeptides, […] (SEQ ID NO:2) (the "HIV-1MEM" polypeptide), which is composed of the membrane translocation domain of FGF flanked by the NLS from the HIV-1 matrix protein and […] (SEQ ID NO:3) (the "C-MYCMEM" polypeptide), which contains the NLS from the human c-myc oncoprotein (Chelsky et al. (1989), supra, and Dang et al. (1988), supra) using murine 70Z/3 pre-B cells.
Murine 70Z/3 cells (ATCC TlD-158) are a model cell line for analyzing the effects of compounds on B-cell differentiation. In response to S. typhosa LPS (Difco) or γ-interferon, these cells differentiate from surface κ immunoglobulin negative to κ Ig positive.
[…] of: (1) a peptide containing only the FGF signal sequence AAVALLPAVLLALLAP (SEQ ID NO:4) (the "MEM" peptide); (2) a polypeptide having the FGF signal sequence and the NLS of NF-κB p50 on the carboxy terminus of the signal sequence, namely, the NF-κBMEM polypeptide; (3) the SV40MEM polypeptide comprised of L-amino acids; or (4) the SV40MEM polypeptide comprised of D-amino acids. The cells were then incubated with LPS as described in Example 2 and assayed for expression of κ light chain expression.

Test [3] deals with HIV-M1 virus in Jurkat human leukemia T-cells. Description: Infection of Jurkat T-cells with HIV-M1 virus (PCR of HIV-1 DNA). In kind it is cell-based. The settings on record: 2 μM, 4 hr preincubation, day 3, FIG. 7. As to the method:
as §1, §2

A further test has as its system HIV-1 primary isolate M1. The test is described as follows: Infection of anti-CD3 activated PBMCs with HIV-1 primary isolate M1. In kind it is cell-based. Conditions: seven days, compared to untreated but activated cultures. How it is done:
as §1
PBMCs were obtained washed, cultured, and infected with HIV-1 as described in Dubrovsky et al. (1995) Mol. Med. 1:217-230). PBMCs from a seronegative donor were collected and depleted of CD8^+ T cells by negative selection. The cells were activated with an anti-CD3 monoclonal antibody prepared according to the method described in Wee et al. (1993) J. Exp. Med. 177:219 and incubated for 3 hr with the HIV-1MEM polypeptide. The cells were then incubated with M1 virus isolated from PBMC collected from HIV-infected donors in the presence of inhibitors for 2 hr. The virus was washed out, and the cultures supplemented with the appropriate inhibitor and allowed to incubate for seven days. Virus production was determined by measuring the p24 levels in the culture supernatant (FIG. 6B) and contrasted with the effect of the polypeptide on cell proliferation (FIG. 6A), which virus load was determined by polymerase chain reaction analysis of proviral DNA content (gag) (FIG. 6C). The MEM peptide represents the FGF membrane translocating portion of the HIV-1MEM polypeptide.

The test system of test [4] is THP-1 human monocytic cells. Description: LPS-stimulated cytokine (TNF-α, IL-8) production in THP-1 cells. It is filed as cell-based. The settings on record: 5 μM, 5 hr LPS stimulation, FIG. 4A. As to the method:
Amounts of TNF-α, IL-6, IL-8 and IL-10 were determined using the ELISA kits obtained from Genzyme following the manufacturer's instructions.
THP-1 control cells were harvested, washed and set up in RPMI 1640, 10% fetal calf serum, at a concentration of 2.56×10^6 cells/ml. Phosphate buffered saline ("PBS") or one of the two respective polypeptides SV40MEM or SV40 (a peptide having only the SV40 large T antigen NLS sequence) were added to the cells at a concentration of 10 μM or 20 μM. The cells were then plated into a 96-well plate with 0.1 ml/well. The plate was then incubated for 2 hr at 37° C. in a 5% CO2 atmosphere. Following the initial incubation, media or a titration of LPS was added to each of the wells in a volume of 0.1 ml. Thus, the final concentrations of polypeptides were 5 μM or 10 μM. Following 5 hr of LPS stimulation, supernatants were taken and TNF-α and IL-8 levels were determined by ELISA. In addition, cells treated with PBS or polypeptides, but not incubated with LPS, were removed at the time of supernatant removal to determine the viability of the cells following 7 hr of contact with the polypeptides.
This experiment was conducted to compare the inhibitory effect of the SV40MEM polypeptide and other inhibitory polypeptides on LPS induction of cytokine production. THP-1 control cells (ATCC 9/95 stock) were harvested, washed and set up in RPMI 1640, 10% fetal calf serum as described in Example 2. The cells were incubated for 2 hr with PBS or (1) the FGF signal sequence, (2) a polypeptide having the FGF signal sequence and the NLS of NF-κB p50 on the carboxy terminus of the signal sequence, (3) the SV40MEM polypeptide comprised of L-amino acids, or (4) the SV40MEM polypeptide comprised of D-amino acids at a final concentration of 5 μM. The cells were then plated into a 96-well plate with 0.1 ml/well. The plate was then incubated for 2 hr at 37° C. in a 5% CO2 atmosphere. Following the initial incubation, media or a titration of LPS was added to each of the wells in a volume of 0.01 ml/well. Following 5 hr of LPS stimulation, supernatants were taken and TNF-α levels were determined by ELISA.

Another test concerns HIVLAI in Jurkat cells. The test is described as follows: Nuclear translocation of HIV genome in Jurkat cells infected with HIVLAI (gag and 2-LTR circle PCR). In kind it is cell-based, HIV-1. Conditions: SV40MEM 0.1 and 1.0 μM, NF-κBMEM 10 μM, 24 hr. How it is done: as §1
2-LTR circles, a strictly nuclear form of HIV-1 DNA the expression of which indicates nuclear localization of the viral genome, was measured by as described in Bukrinsky et al (1991) Science 254:423.
Jurkat cells were incubated with the SV40MEM polypeptide for 3 hr with HIVLAI for 1-2 hr. The virus was washed out and the cultures supplemented with the appropriate inhibitor (SV40MEM, 0.1,μM and 1.0 μM; NF-κBMEM, 10 μM). After 24 hr, the cells were collected, lysed and evaluated for HIV-1 DNA by polymerase chain reaction analysis of gag sequences (see FIG. 8A) and 2-LTR circles (see FIG. 8B).

Another test deals with Murine 70Z/3 B-cells. The test is described as follows: Proliferation of 70Z/3 murine B-cell leukemia cells. The settings on record: 0.2 μM (lowest concentration), 48 hr, FIG. 9. In kind it is cell-based. As to the method: Murine 70Z/3 B-cells were treated with 0, 0.2, 0.5, 1, or 2 μM […] prepared from D-amino acids. On day 0, the cell concentrations of the control and treated cells were the same. After 48 hr of exposure to the peptide, the treated cells were again counted and compared to control cells.

A further test concerns Human RAJI B-cells. The test is described as follows: Proliferation of RAJI human B-cell leukemia cells. In kind it is cell-based. The settings on record: 5 μM (lowest concentration), 48 hr, FIG. 10. How it is done:
Human RAJI B-cells were treated with 0, 5, 10 or 25 μM SV40MEM prepared from D-amino acids. On day 0, the cell concentrations of the control and treated cells were the same. After 48 hr of exposure to the peptide, the treated cells were again counted and compared to control cells.

For a further test, the system named is CD14. Description: LPS binding to CD14 (plate assay with soluble CD14 Ig). The settings on record: E. coli AO16 LPS, 2 hours at 4° C., FIG. 14. As to the method: 96-well plates were coated with goat-anti human Ig, soluble CD-1 4 Ig was added, and the plates were incubated overnight at 4° C. The BMS polypeptide, the C-MYCMEM polypeptide, an SV40 NLS polypeptide containing a single SV40 large T-antigen NLS, a c-myc NLS without a translocation sequence (AKRVKL (SEQ ID NO:6)), a control non-NLS polypeptide, 377G, or PBS, were added to the plates and the plates were incubated for 5 min. E. coli AO16 LPS was then added to the plates and the plates were incubated for 2 hours at 4° C. The plates were washed and LPS was detected using 0.5 μg/ml mouse anti-E. coli LPS, followed by goat anti-mouse horseradish peroxidase.

Where a SMILES comes first, the peptide text is derived from it. Where no end group is shown, it is not given here. [ ]: non-standard residue; d: D form.

For the molecule “KKKYKAAVALLPAVLLALLAKKKYKC [HIV-1MEM, membrane translocation domain of FGF flanked by the NLS from the HIV-1 matrix protein]”, the “infection (level of HIV-1 DNA by PCR)” value in test [1] and in [3] was “inhibited infection” in each case. The “efficacy at inhibiting κ Ig light chain production (comparison of three polypeptides)” value in test [2] (dose-response data, FIG. 1B) is reported as “approximately equally efficacious”. In test [2] (dose-response data, FIG. 1B), the “potency at inhibiting κ Ig light chain production compared with SV40MEM” value is given as “not as potent”. Moreover, in the test with HIV-1 primary isolate M1 (FIG. 6B), the “virus production (p24 levels in culture supernatant)” value is “significantly reduced”. Further, the “virus load (PCR of proviral DNA content, gag)” value in the test on HIV-1 primary isolate M1 (FIG. 6C) is “significantly reduced”.
Consider “PKKKRKVAAVALLPAVLLALLAPKKKRKVC-NH2 (C-terminus assumed) [SV40MEM (L-amino acid form)]”, for which the “LPS-induced TNF-α expression” value in test [4] is on record as “significantly inhibited”. Moreover, the “potency and efficacy of L- versus D-amino acid form, LPS-stimulated κ Ig expression” value in test [2] was “equally potent and efficacious”.
Take `CSCC[C@H](NC(=O)[C@H](CC(C)C)NC(=O)[C@H](CCCCN)NC(=O)[C@H](CCC(N)=O)NC(=O)[C@H](CCCNC(=N)N)NC(=O)[C@H](CCCCN)NC(=O)[C@H](CCCNC(=N)N)NC(=O)[C@H](CCC(N)=O)NC(=O)[C@@H](NC(=O)[C@@H]1CCCN1C(=O)[C@H](C)NC(=O)[C@H](CC(C)C)NC(=O)[C@H](CC(C)C)NC(=O)[C@H](C)NC(=O)[C@H](CC(C)C)NC(=O)[C@H](CC(C)C)NC(=O)[C@@H](NC(=O)[C@H](C)NC(=O)[C@@H]1CCCN1C(=O)[C@H](CC(C)C)NC(=O)[C@H](CC(C)C)NC(=O)[C@H](C)NC(=O)[C@@H](NC(=O)[C@H](C)NC(=O)[C@H](C)N)C(C)C)C(C)C)C(C)C)C(=O)N1CCC[C@H]1C(N)=O` [NF-κBMEM]: in [4], the “LPS-induced TNF-α expression” value is “did not significantly inhibit”. The “viral internalization / virus entry (gag sequences)” value in the test with HIVLAI in Jurkat cells (FIG. 8A) is listed as “no effect”. Moreover, the “translocation of the viral genome into the nucleus (2-LTR circles)” value with HIVLAI in Jurkat cells (FIG. 8B) was “no effect”.
As for `CC(C)C[C@@H](NC(=O)[C@@H](C)NC(=O)[C@@H](CC(C)C)NC(=O)[C@@H](CC(C)C)NC(=O)[C@H](NC(=O)[C@@H](C)NC(=O)[C@H]1CCCN1C(=O)[C@@H](CC(C)C)NC(=O)[C@@H](CC(C)C)NC(=O)[C@@H](C)NC(=O)[C@H](NC(=O)[C@@H](C)NC(=O)[C@@H](C)NC(=O)[C@H](NC(=O)[C@@H](CCCCN)NC(=O)[C@@H](CCCNC(=N)N)NC(=O)[C@@H](CCCCN)NC(=O)[C@@H](CCCCN)NC(=O)[C@@H](CCCCN)NC(=O)[C@H]1CCCN1)C(C)C)C(C)C)C(C)C)C(=O)N[C@H](CC(C)C)C(=O)N[C@H](C)C(=O)N1CCC[C@@H]1C(=O)N[C@H](CCCCN)C(=O)N[C@H](CCCCN)C(=O)N[C@H](CCCCN)C(=O)N[C@H](CCCNC(=N)N)C(=O)N[C@H](CCCCN)C(=O)N[C@@H](C(=O)N[C@H](CS)C(N)=O)C(C)C` [SV40MEM (D-amino acid form)] (H-[dP][dK][dK][dK][dR][dK][dV][dA][dA][dV][dA][dL][dL][dP][dA][dV][dL][dL][dA][dL][dL][dA][dP][dK][dK][dK][dR][dK][dV][dC]-NH2; N-terminus and C-terminus assumed), the “proliferation (cell count versus control)” value in the test with Murine 70Z/3 B-cells and in the test with Human RAJI B-cells was “inhibited” in each case. Further, in test [4], the “LPS-induced TNF-α expression” value was “significantly inhibited”. Also, in test [2], the “potency and efficacy of L- versus D-amino acid form, LPS-stimulated κ Ig expression” value was “equally potent and efficacious”. The “efficacy at inhibiting κ Ig light chain production (comparison of three polypeptides)” value in test [2] (dose-response data, FIG. 1B) is “approximately equally efficacious”.
Take AKRVKL [c-myc NLS, reference compound]: the “binding of LPS to CD14” value in the test on CD14 is recorded as “did not block binding”.
